Experimental data as given in patent publication US4680382A, “Analogues of actinomycin D” (priority 1986, dated 1987).
*1 amine or outer side, *2 acyl side, *3 side chain or, on linkers, in order; H or OH if unused. Where a SMILES comes first, the peptide text is derived from it. Bridges are numbered along the chain shown (N, C = ends). Roman numbers before positions name the chains, in order. [ ]: non-standard residue; d: D form. Actinocin(9to1) = Cc1c2oc3c(C)ccc(C(=O)[*:1])c3nc-2c(C(=O)[*:2])c(N)c1=O; NMeV = CN[C@H](C(=O)O)C(C)C; Sar = CNCC(=O)O

What was measured:
calf-thymus DNA = assay: Equilibrium binding to calf-thymus DNA, Scatchard plots of binding isotherms (spectrophotometric); conditions: Scatchard plot
Protocol: (§1) The "reverse" analogues bind to calf-thymus DNA, but the spectrophotometrically determined binding (Kapp and Bapp, equilibrium binding values) constants are found to be lower than those of AMD. The binding is also measured by thermal denaturation of DNA.
(§2) The equilibrium binding constants (Kapp and Bapp) of the "reverse" methyl 7a and the "reverse" phenyl 8a were determined from the Scatchard plots of binding isotherms; the Scatchard plots are produced according to the previously described methods using calf-thymus DNA [Sengupta et al, Biochem. Biophys. Acta 521, 89 (1978)]. The Kapp values are 2.5×10^6 and 2.3×10^6 M^-1, respectively; corresponding Bapp values are 0.038 and 0.036. […] But, these "reverse" analogues associate with DNA less strongly; their frequency of binding is also lower compared to that of AMD. However, the "reverse" analogues fail to cause any measurable change in the ratio of the intrinsic viscosity (γ) of DNA with the increasing ratios of [ligand]/DNA base pair (r), even when low molecular weight DNAs (0.5×10^5 to 1.0×10^5) were employed.

DNA = assay: Thermal denaturation of DNA (ΔTm); assay type: binding
Protocol: as §1, §2
Melting points are determined on a Thomas-Hoover melting point apparatus at a heating rate of 2° C./min. Thin-layer chromatography was performed on silica gel plates (Brinkmann Instrument Inc.). Solvent systems were (A) EtOAc-acetone (4:1), (B) CHCl3 -MeOH (9:1) and (C) Cifferri, the organic phase of the mixture EtOAc-MeOH-H2 O (20:1:20). High-performance liquid chromatography was carried out on a Varian Model 5020 gradient liquid chromatograph equipped with a CD-111L chromatography data system and fitted with a Varian reversed-phase C18 column with the following solvent systems: I, CH3 CN-5 mM NH4 OAc buffer, pH 6.4 (68:32 isocratic), flow rate 1.5 mL/min; II, 65-95% water-methanol gradient for 70 min, 1 mL/min; III, 10-90% H2 O-MeOH gradient for 120 min, 1 mL/min, with UV-visible variable- and fixed-wavelength dual detectors at 254, 440, 470 and 520 nm. IR spectra were obtained on a Perkin-Elmer Model 237 Infra Cord with KBr micropellets or in chloroform solutions. UV-visible spectra were obtained on a Gilford 250 spectrophorometer, which, with the addition of a base-line reference compensator (Analog Multiplexer 5053) and thermoprogrammer, auto four cell programmer and thermoelectric cell holder 2577, were used to obtain thermal denaturation curves. Specific rotation values were determined in chloroform solutions with a Cary 60 spectropolarimeter. NMR spectra were obtained in a JEOL FQ-90 MHz spectrometer equipped with Fourier transform. EPR spectra analyses were recorded in a Varian E-9 EPR spectrometer. All elemental analyses were within ±0.4%.

P388 cells = assay: Inhibition of DNA synthesis (methyl-[3H]thymidine incorporation) in P388 cells; assay type: cell-based, murine; conditions: 50% reduction in 1 hr of methyl-[3H]thymidine incorporation, read-out: IC50 DNA synth
Protocol: Experiments for inhibition of nucleic acid synthesis in tumor cells in vitro were carried out with P388 tumor cells, details of which were reported by Sengupta et al, J. Med. Chem., 18, 1175 (1975). […] AMD-OZLs inhibit either process with equal activity and with the potency of its metabolite 7-hydroxy-AMD.
^c IC50 (DNA) = concentration of inhibitor in μM required to
cause 50% reduction (in 1 hr) in methyl[^3 H]thymidine incorporation
into acid precipitable material with use of P388 cells.

[1] = target: T1, NADPH cytochrome P-450 reductase (rat liver microsomes) (Rattus norvegicus, UniProt P00388); assay: Stimulation of NADPH oxidation in rat hepatic microsomal incubations; conditions: for NADPH oxid: 340 nm, 37° C., phenobarbital induced microsomes, mean ± standard error of triplicate, basal 9.11 ± 0.30; for percentage stimulation of NADPH oxidation over basal rate: (drug-stimulated rate - basal rate)/basal rate × 100
T1 sequence (P00388 1-678): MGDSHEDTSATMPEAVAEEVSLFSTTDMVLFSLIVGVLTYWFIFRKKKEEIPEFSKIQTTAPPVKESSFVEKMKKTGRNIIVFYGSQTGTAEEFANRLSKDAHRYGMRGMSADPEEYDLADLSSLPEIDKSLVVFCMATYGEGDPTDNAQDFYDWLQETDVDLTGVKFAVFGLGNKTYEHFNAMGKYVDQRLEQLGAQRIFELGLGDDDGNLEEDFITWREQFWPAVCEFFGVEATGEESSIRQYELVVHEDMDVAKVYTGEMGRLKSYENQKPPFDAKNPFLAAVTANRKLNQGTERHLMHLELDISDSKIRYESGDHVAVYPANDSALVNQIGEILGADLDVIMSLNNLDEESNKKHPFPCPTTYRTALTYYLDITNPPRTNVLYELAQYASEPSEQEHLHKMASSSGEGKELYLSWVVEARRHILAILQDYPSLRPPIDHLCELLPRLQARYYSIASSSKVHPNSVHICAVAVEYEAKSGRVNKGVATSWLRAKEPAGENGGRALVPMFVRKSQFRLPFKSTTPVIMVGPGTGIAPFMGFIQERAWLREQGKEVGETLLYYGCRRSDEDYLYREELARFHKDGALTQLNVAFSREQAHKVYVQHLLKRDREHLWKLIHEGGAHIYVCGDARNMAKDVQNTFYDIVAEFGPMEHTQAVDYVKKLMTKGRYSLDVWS

B16 melanoma = assay: In vivo antitumor activity against B16 melanoma; parameters: species or system BDF1 mice; conditions: for % ILS / surv (survivors on day 65/total injected) / MST (range): at optimal dose; for MST (range): control 29 (20-48); for optimal dose: ip, days 1, 5, 9
Protocol: AMD-OZL analogues 9a and 10a were about as active as AMD and 7-hydroxy-AMD. The potencies of these analogues are reduced in comparison to that of AMD; their optimal doses were higher than that of AMD.
^a 0.2 mL of 1:5 (weight/volume) brei of B16 melanoma implanted
ip on day 0 in groups of nine BDF1 mice. Drugs administered ip.
^b MST (range) median survival time in days (range of individual
^c % ILS (surv), percent increase in lifespan (survivors on day

[2] = tested on: P388 lymphocytic leukemia; assay: In vivo antitumor activity against P388 leukemia; parameters: species or system BDF1 mice; conditions: for surv (surviving mice/total mice at 60 days) / % ILS / MST (range): P388, at optimal dose; for % ILS: 100(T/C - 1); for MST (range): control 11.0 (9-12); for optimal dose: P388, ip, days 1, 5 and 9, optimal nontoxic dose
Protocol: The analogues were tested for their antitumor activities in P388 lymphocytic leukemia in male BDF1 mice. The tumor was implanted intraperitoneally (ip) with 10^6 cells. The drugs were also administered ip once daily on days 1, 5 and 9, beginning 1 day after tumor transplantation. Analogues were tested over a range of doses, but only the optimal nontoxic doses are listed.
^a 10^6 P388 cells implanted ip on day 0 into groups of eight
BDF1 male mice. Drugs administered ip. MST (range), median survival
time in days (range of individual animal deaths); % ILS, percent increase
in life span, calculated 100(T/C - 1), where T and C are median survival
times of treated and control animals; surv, number of surviving mice/tota

SMILES	Bapp (equilibrium binding value) (calf-thymus DNA)	Kapp (equilibrium binding constant) (calf-thymus DNA)	ΔTm (DNA melting temperature) (DNA)	IC50 (P388 cells)	NADPH oxid [1]	percentage stimulation of NADPH oxidation over basal rate [1]	% ILS (B16 melanoma)	surv (survivors on day 65/total injected) (B16 melanoma)	MST (range) (B16 melanoma)	optimal dose (B16 melanoma)	surv (surviving mice/total mice at 60 days) [2]	% ILS [2]	MST (range) [2]	optimal dose [2]
Cc1c2oc3c(C)c(O)c(N)c(C(=O)NC4C(=O)NC(C(C)C)C(=O)N5CCCC5C(=O)N(C)CC(=O)N(C)C(C(C)C)C(=O)OC4C)c3nc-2c(C(=O)NC2C(=O)NC(C(C)C)C(=O)N3CCCC3C(=O)N(C)CC(=O)N(C)C(C(C)C)C(=O)OC2C)c(N)c1=O (stereo not shown) [4a, 7-Hydroxy-8-amino-actinomycin D]	1.3	6.3e+07 M⁻¹	7.9±0.2 °C	1.11 µM	64.3 ± 2.11 nmol min^-1 (mg of protein)^-1	606%	96%	4/9	57 (33-61) days	300 μg/kg per inj	4/8	382%	52.0 (48-55) days	600.0 μg/kg per inj
Cc1nc2c(C(=O)NC3C(=O)NC(C(C)C)C(=O)N4CCCC4C(=O)N(C)CC(=O)N(C)C(C(C)C)C(=O)OC3C)c3nc4c(C(=O)NC5C(=O)NC(C(C)C)C(=O)N6CCCC6C(=O)N(C)CC(=O)N(C)C(C(C)C)C(=O)OC5C)c(N)c(=O)c(C)c-4oc3c(C)c2o1 [7a, 7-Amino-2,9,11-trimethyl-8H-8-oxooxazolo [4,5-b]phenoxazine 4,6-bis[carbonyl-L-threonyl-D-valyl-L-prolylsarcosyl-L-N-methylvaline-(threonine hydroxyl)] lactone]	0.038	2.5e+06 M⁻¹	5.5±0.3 °C	1.01 µM	21.3 ± 1.93 nmol min^-1 (mg of protein)^-1	134%	90%	3/9	55 (33-57) days	300 μg/kg per inj	3/8	277%	42.5 (39-43) days	450.0 μg/kg per inj
Cc1nc2c(C(=O)NC3C(=O)NC(C(C)C)C(=O)N4CCCC4C(=O)N(C)CC(=O)N(C)C(C(C)C)C(=O)OC3C)c3nc4c(C(=O)NC5C(=O)NC(C(C)C)C(=O)N6CCCC6C(=O)N(C)CC(=O)N(C)C(C(C)C)C(=O)OC5C)cc(=O)c(C)c-4oc3c(C)c2o1 (stereo not shown) [9a]	–	–	–	–	19.1 ± 1.70 nmol min^-1 (mg of protein)^-1	110%	55%	1/9	45 (32-55) days	750 μg/kg per inj	0/0	164%	29.0 (19-58) days	1200.0 μg/kg per inj
Cc1c2oc3c(C)ccc(C(=O)N[C@@H]4C(=O)N[C@H](C(C)C)C(=O)N5CCC[C@H]5C(=O)N(C)CC(=O)N(C)[C@@H](C(C)C)C(=O)O[C@@H]4C)c3nc-2c(C(=O)N[C@@H]2C(=O)N[C@H](C(C)C)C(=O)N3CCC[C@H]3C(=O)N(C)CC(=O)N(C)[C@@H](C(C)C)C(=O)O[C@@H]2C)c(N)c1=O [AMD, Actinomycin D] (I: T[dV]P[Sar][NMeV] / II: T[dV]P[Sar][NMeV]; ester I:1-I:C, II:1-II:C; linker I:N-II:N via Actinocin(9to1))	0.108	2.3e+07 M⁻¹	7.1±0.15 °C	1.12 µM	10.01 ± 0.90 nmol min^-1 (mg of protein)^-1	9.9%	48%	2/9	43 (36-54) days	250 μg/kg per inj	1/8	136%	26.0 (16-37) days	300.0 μg/kg per inj
